We go through 16 compounds from patent US6787551B2, “Thiazolidinedione derivatives and pharmaceutical composition comprising the same” (Chong Kun Dang Pharmaceutical Corporation, priority 2002, dated 2004).

Data set [1] deals with mice with diabetes (KK/Ay). In words: Blood glucose- and blood lipid-lowering action in mice with diabetes. Type of data set: in vivo. Conditions: male KK/Ay mice, daily oral administration for 5 days; for Blood glucose (ED25): dose reducing blood glucose by 25%; for Triglyceride (ED25): dose reducing triglyceride by 25%. On the procedure:
Male mice with diabetes (KK/Ay: 10 weeks old, 5 animals/group) were housed and given free access to water and food. The animals received a daily oral administration of the test compounds for 5 days. After the last dose, a blood sample was drawn via the orbital sinus.
The plasma was analyzed for blood glucose content using the Glucose-E kit (YEONGDONG PHARMACEUTICAL CO. LTD., Korea), and for triglyceride content using the Triglyceride kit (YEONGDONG PHARMACEUTICAL CO. LTD., Korea).

In data set [2] the test system is primary cultured rat hepatocytes. In words: Cytotoxicity assay in primary cultured rat hepatocytes (neutral red). Conditions: for Safety index (TC25 nM/EC50 nM): TC25 in hepatocyte cytotoxicity assay / EC50 in triglyceride accumulation assay; for Cytotoxicity in hepatocyte (TC25 uM): primary rat hepatocytes, 24 h, neutral red, 25% toxic concentration.
Method: Hepatocytes isolated from rat were inoculated in a collagen-coated 24 well plate and was incubated in a CO2 incubator at 37° C. for 24 hours. Then, a certain concentration of each of the test compounds was added, and the cells were again incubated for 24 hours. The cells were then incubated in a 0.4% neutral red containing medium for 4 hours and washed once with phosphate buffer. 0.5 ml of a solution of 1% acetic acid-50% ethanol was added to the cells, which were let stand. 200 ul of the cell sample was taken and absorbance was measured at 570 nm. The cytotoxicity assay performed on hepatocytes was measured as 25% toxic concentration (TC25, uM). Then, the safety index, i.e. the TC25 value in the cytotoxicity assay in hepatocyte/the EC50 value in the triglyceride accumulation assay, was calculated.
A further data set has as its system 3T3-L1 cells. Kind of data set: Triglyceride accumulation assay. The format is cell-based. Conditions: 4 days with compound, concentration giving 50% of maximum enhancement of rosiglitazone activation. On the procedure:
2) Triglyceride accumulation assay (in 3T3-L1 cells)
Undifferentiated adipocyte 3T3-L1 cells were inoculated in a 24-well plate and cultivated in a CO2 incubator at 37° C. To induce differentiation of the undifferentiated adipocytes, the cells were then incubated in a differentiation medium for 48 hours. After adding a certain concentration of each of the test compounds to the differentiation medium, the cells were again incubated for 4 days. Then, the final cell sample was placed into 200 μl of 2-propanol. The amount of triglyceride in the cells were measured by Triglyceride Kit [YEONGDONG PHARMACEUTICAL CO. LTD., Korea] commercially available.

For data set [3], the system named is differentiated 3T3-L1 cell. Kind of data set: 2-Deoxy-D-[2,6-3H] glucose uptake assay. Type of data set: cell-based. Conditions: differentiated 3T3-L1 cells, 24 h with compound, 0.5 nM insulin; concentration giving 50% of maximum enhancement of insulin activation; read-out: 2-deoxyglucose uptake (EC50 nM). As for the experimental part:
1) 2-Deoxy-D-[2,6-3H] glucose uptake assay (in differentiated 3T3-L1 cell)
Undifferentiated adipocyte 3T3-L1 cells were inoculated in a 24-well plate and cultivated in a CO2 incubator at 37° C. To induce differentiation of the undifferentiated adipocytes, the cells were then incubated in a differentiation medium. After adding a certain concentration of each of the test compounds to the medium, the cells were again incubated for 24 hours. After removing the medium, the cells were washed with phosphate buffer, and 0.5 nM of insulin in phosphate buffer was added to the washed cells, followed by incubation for 40 minutes. Then, 0.5 uCi of 2-deoxy-D-[2,6-3H] glucose per well was again added to the cells, which were let stand for 4 minutes. Then, the cells were washed with phosphate buffer, and cell lysis buffer was added, so as to dissolve the cell membranes. The cell sample was placed into a liquid scintillation cocktail solution. The radioactivity of the sample was counted by a liquid scintillation counter.

In the case of “5-(4-[2-(N-methyl-N-2-(4-(4-isopropyl)pyridinyl)amino)ethoxy]benzyl)-2,4-thiazolidinedione [Ex. 36]”, in data set [1], the “Blood glucose (ED25)” value stood at 3.5 mg/kg and the “Triglyceride (ED25)” value came to 14.9 mg/kg. Moreover, in data set [2], the “Safety index (TC25 nM/EC50 nM)” value was 4663 and the “Cytotoxicity in hepatocyte (TC25 uM)” value was found to be 76000 nM. For the same compound, the EC50 with 3T3-L1 cells came out at 16.3 nM. In addition, the EC50 in data set [3] was 20.9 nM.

Turning to “5-(4-[2-(N-methyl-N-(2-(4-(4-chloro)phenoxy)pyridinyl)amino)ethoxy]benzyl)-2,4-thiazolidinedione [Ex. 34]”, in data set [1], the “Blood glucose (ED25)” value was 1.9 mg/kg and the “Triglyceride (ED25)” value is on record as 5.6 mg/kg. Moreover, in data set [2], the “Safety index (TC25 nM/EC50 nM)” value worked out at 48667 and the “Cytotoxicity in hepatocyte (TC25 uM)” value amounted to 73000 nM. Further, the EC50 in the data set with 3T3-L1 cells is 1.5 nM. Besides, the EC50 in data set [3] amounted to 4 nM.

For “5-(4-[2-(N-methyl-N-(2-(4-(4-fluoro)phenoxy)pyridinyl)amino)ethoxy]benzyl)-2,4-thiazolidinedione [Ex. 33]”, in data set [1], the “Blood glucose (ED25)” value was 1.1 mg/kg and the “Triglyceride (ED25)” value is recorded as 6.5 mg/kg. For the same compound, in data set [2], the “Safety index (TC25 nM/EC50 nM)” value was 17679 and the “Cytotoxicity in hepatocyte (TC25 uM)” value was determined as 99000 nM. Besides, the EC50 in the data set with 3T3-L1 cells amounted to 5.6 nM. Besides, the half-maximal effective concentration (EC50) in data set [3] was found to be 8.9 nM.

In the case of `CN(CCOc1ccc(C=C2SC(=O)NC2=O)cc1)c1cc(Oc2ccccc2)ncn1` [Ex. 1], in data set [1], the “Blood glucose (ED25)” value is recorded as 4.0 mg/kg and the “Triglyceride (ED25)” value is given as 30 mg/kg. Also, in data set [2], the “Safety index (TC25 nM/EC50 nM)” value is on record as 2578 and the “Cytotoxicity in hepatocyte (TC25 uM)” value turned out to be 98000 nM. In addition, the EC50 in the data set with 3T3-L1 cells is 38 nM. The EC50 in data set [3] was determined as 58 nM.

Turning to `CN(CCOc1ccc(C=C2SC(=O)NC2=O)cc1)c1cc(Oc2ccc(Cl)cc2)ncn1` [Ex. 5, 5-(4-[2-(N-methyl-N-(6-(4-(4-chloro)phenoxy)pyrimidinyl)amino)ethoxy]benzylidene)-2,4-thiazolidinedione], in data set [1], the “Blood glucose (ED25)” value is recorded as 4.0 mg/kg and the “Triglyceride (ED25)” value was determined as 28 mg/kg. In data set [2], the “Safety index (TC25 nM/EC50 nM)” value came out at 2657 and the “Cytotoxicity in hepatocyte (TC25 uM)” value was 93000 nM. Moreover, in the data set with 3T3-L1 cells, the EC50 came to 35 nM. For the same compound, the EC50 in data set [3] came out at 45 nM.

For the compound `CCc1ccc(Oc2cc(N(C)CCOc3ccc(C=C4SC(=O)NC4=O)cc3)ncn2)cc1` [Ex. 9, 5-(4-[2-(N-methyl-N-(6-(4-(4-ethyl)phenoxy)pyrimidinyl)amino)ethoxy]benzylidene)-2,4-thiazolidinedione], in data set [1], the “Blood glucose (ED25)” value was determined as 4.1 mg/kg and the “Triglyceride (ED25)” value was 29 mg/kg. Further, in data set [2], the “Safety index (TC25 nM/EC50 nM)” value amounted to 3010 and the “Cytotoxicity in hepatocyte (TC25 uM)” value turned out to be 90000 nM. Moreover, the EC50 in the data set on 3T3-L1 cells was 29.9 nM. In addition, the EC50 in data set [3] is 55.2 nM.

With `CN(CCOc1ccc(C=C2SC(=O)NC2=O)cc1)c1cc(Oc2ccc(-c3ccccc3)cc2)ncn1` [Ex. 12, 5-(4-[2-(N-methyl-N-(6-(4-(4-phenyl)phenoxy)pyrimidinyl)amino)ethoxy]benzylidene)-2,4-thiazolidinedione], in data set [1], the “Blood glucose (ED25)” value is on record as 4.1 mg/kg and the “Triglyceride (ED25)” value turned out to be 25 mg/kg. Besides, in data set [2], the “Safety index (TC25 nM/EC50 nM)” value is on record as 1816 and the “Cytotoxicity in hepatocyte (TC25 uM)” value came to 85000 nM. For the same compound, the EC50 in the data set on 3T3-L1 cells turned out to be 46.8 nM. Moreover, in data set [3], the EC50 is 49.5 nM.

As to `CN(CCOc1ccc(CC2SC(=O)NC2=O)cc1)c1cc(Oc2ccccc2)ncn1` (stereo not drawn) [Ex. 20, 5-(4-[2-(N-methyl-N-(6-(4-phenoxy)pyrimidinyl)amino)ethoxy]benzyl)-2,4-thiazolidinedione], in data set [1], the “Blood glucose (ED25)” value is reported as 0.22 mg/kg and the “Triglyceride (ED25)” value came out at 1.2 mg/kg. Moreover, in data set [2], the “Safety index (TC25 nM/EC50 nM)” value was 29630 and the “Cytotoxicity in hepatocyte (TC25 uM)” value amounted to 80000 nM. Also, the EC50 in the data set on 3T3-L1 cells is 2.7 nM. Moreover, the EC50 in data set [3] amounted to 7.5 nM.

`CN(CCOc1ccc(CC2SC(=O)NC2=O)cc1)c1cc(Oc2ccccc2)ccn1` (stereo not drawn) [Ex. 22, 5-(4-[2-(N-methyl-N-(2-(4-phenoxy)pyridinyl)amino)ethoxy]benzyl)-2,4-thiazolidinedione]: in data set [1], the “Blood glucose (ED25)” value was 0.7 mg/kg and the “Triglyceride (ED25)” value amounted to 3.9 mg/kg. In data set [2], the “Safety index (TC25 nM/EC50 nM)” value is on record as 137037 and the “Cytotoxicity in hepatocyte (TC25 uM)” value was found to be 74000 nM. Further, the concentration for a half-maximal effect (EC50) with 3T3-L1 cells is 0.54 nM. Besides, in data set [3], the EC50 was found to be 1.8 nM.

Turning to `CN(CCOc1ccc(CC2SC(=O)NC2=O)cc1)c1cc(Oc2ccc(F)cc2)ncn1` (stereo not drawn) [Ex. 23, 5-(4-[2-(N-methyl-N-(6-(4-(4-fluoro)phenoxy)pyrimidinyl)amino)ethoxy]benzyl)-2,4-thiazolidinedione], in data set [1], the “Blood glucose (ED25)” value was determined as 0.25 mg/kg and the “Triglyceride (ED25)” value was determined as 2.2 mg/kg. In data set [2], the “Safety index (TC25 nM/EC50 nM)” value turned out to be 87654 and the “Cytotoxicity in hepatocyte (TC25 uM)” value amounted to 71000 nM. Moreover, the half-maximal effective concentration (EC50) with 3T3-L1 cells came out at 0.81 nM. Besides, the EC50 in data set [3] is 2.4 nM.

For `CN(CCOc1ccc(CC2SC(=O)NC2=O)cc1)c1cc(Oc2ccc(Cl)cc2)ncn1` (stereo not drawn) [Ex. 24, 5-(4-[2-(N-methyl-N-(6-(4-(4-chloro)phenoxy)pyrimidinyl)amino)ethoxy]benzyl)-2,4-thiazolidinedione], in data set [1], the “Blood glucose (ED25)” value is 0.18 mg/kg and the “Triglyceride (ED25)” value is recorded as 0.6 mg/kg. Further, in data set [2], the “Safety index (TC25 nM/EC50 nM)” value stood at 750000 and the “Cytotoxicity in hepatocyte (TC25 uM)” value came to 75000 nM. Moreover, the EC50 in the data set on 3T3-L1 cells came out at 0.1 nM. For the same compound, the EC50 in data set [3] amounted to 0.2 nM.

Consider `COc1ccc(Oc2cc(N(C)CCOc3ccc(CC4SC(=O)NC4=O)cc3)ncn2)cc1` (stereo not drawn) [Ex. 25, 5-(4-[2-(N-methyl-N-(6-(4-(4-methoxy)phenoxy)pyrimidinyl)amino)ethoxy]benzyl)-2,4-thiazolidinedione], for which, in data set [1], the “Blood glucose (ED25)” value was determined as 0.15 mg/kg and the “Triglyceride (ED25)” value came to 0.5 mg/kg. Moreover, in data set [2], the “Safety index (TC25 nM/EC50 nM)” value worked out at 727272 and the “Cytotoxicity in hepatocyte (TC25 uM)” value worked out at 80000 nM. Also, the EC50 with 3T3-L1 cells turned out to be 0.11 nM. Besides, the EC50 in data set [3] was determined as 0.2 nM.

As to `CCOc1ccc(Oc2cc(N(C)CCOc3ccc(CC4SC(=O)NC4=O)cc3)ncn2)cc1` (stereo not drawn) [Ex. 26, 5-(4-[2-(N-methyl-N-(6-(4-(4-ethoxy)phenoxy)pyrimidinyl)amino)ethoxy]benzyl)-2,4-thiazolidinedione], in data set [1], the “Blood glucose (ED25)” value is 0.8 mg/kg and the “Triglyceride (ED25)” value turned out to be 4.3 mg/kg. In addition, in data set [2], the “Safety index (TC25 nM/EC50 nM)” value is on record as 12338 and the “Cytotoxicity in hepatocyte (TC25 uM)” value turned out to be 95000 nM. Further, in the data set with 3T3-L1 cells, the 50% effective concentration (EC50) worked out at 7.7 nM. In addition, the EC50 in data set [3] came to 14.4 nM.

Turning to `CC(C)Oc1ccc(Oc2cc(N(C)CCOc3ccc(CC4SC(=O)NC4=O)cc3)ncn2)cc1` (stereo not drawn) [Ex. 27, 5-(4-[2-(N-methyl-N-(6-(4-(4-isopropoxy)phenoxy)pyrimidinyl)amino)ethoxy]benzyl)-2,4-thiazolidinedione], in data set [1], the “Blood glucose (ED25)” value came out at 0.8 mg/kg and the “Triglyceride (ED25)” value worked out at 4.5 mg/kg. In data set [2], the “Safety index (TC25 nM/EC50 nM)” value is 3594 and the “Cytotoxicity in hepatocyte (TC25 uM)” value came to 78000 nM. The EC50 with 3T3-L1 cells came to 21.7 nM. Besides, the EC50 in data set [3] turned out to be 35.5 nM.

For the compound `CCc1ccc(Oc2cc(N(C)CCOc3ccc(CC4SC(=O)NC4=O)cc3)ncn2)cc1` (stereo not drawn) [Ex. 28, 5-(4-[2-(N-methyl-N-(6-(4-(4-ethyl)phenoxy)pyrimidinyl)amino)ethoxy]benzyl)-2,4-thiazolidinedione], in data set [1], the “Blood glucose (ED25)” value was 1.8 mg/kg and the “Triglyceride (ED25)” value stood at 16.9 mg/kg. Also, in data set [2], the “Safety index (TC25 nM/EC50 nM)” value came to 40476 and the “Cytotoxicity in hepatocyte (TC25 uM)” value came out at 85000 nM. Further, in the data set on 3T3-L1 cells, the 50% effective concentration (EC50) turned out to be 2.1 nM. Further, the EC50 in data set [3] amounted to 5.2 nM.

Turning to `CC(C)c1ccc(Oc2cc(N(C)CCOc3ccc(CC4SC(=O)NC4=O)cc3)ncn2)cc1` (stereo not drawn) [Ex. 30, 5-(4-[2-(N-methyl-N-(6-(4-(4-isopropyl)phenoxy)pyrimidinyl)amino)ethoxy]benzyl)-2,4-thiazolidinedione], in data set [1], the “Blood glucose (ED25)” value turned out to be 2.1 mg/kg and the “Triglyceride (ED25)” value is listed as 21.2 mg/kg. Also, in data set [2], the “Safety index (TC25 nM/EC50 nM)” value was 11077 and the “Cytotoxicity in hepatocyte (TC25 uM)” value is 72000 nM. In the data set on 3T3-L1 cells, the EC50 was found to be 6.5 nM. Also, the EC50 in data set [3] is 13.3 nM.
